Experimental data taken from patent US20200147116A1, “Use of Paeoniflorin-6'-O-benzenesulfonate in treatment of Sjögren's syndrome” (NINGBO ZHIMING BIOTECHNOLOGY CO., LTD., priority 2017, published 2020).
Marks after values point to notes of the source that are not given here.

What was measured:
Assay type in all cases: in vivo
[1] = tested on: submaxillary glands in NOD mice; assay: Pathological grading of submaxillary glands in NOD mice; details: for Score: mice with submaxillary gland pathology Grade 0 / Score: mice with submaxillary gland pathology Grade I / Score: mice with submaxillary gland pathology Grade II / Score: mice with submaxillary gland pathology Grade III / Score: mice with submaxillary gland pathology Grade IV: NOD mice
Description: Mice were sacrificed after two weeks of administration, and then submaxillary glands of four mice of each group were removed and pathologically observed. At first, the submaxillary gland should be fixed in 10% buffered formalin for 24 h, followed by washing, dehydration and clearing, wax-filling, embedding, sectioning and finally H&E staining. […] Results were graded pathologically.
Note: The histological findings graded of submaxillary glands according to the Chisholm-Mason scale; grade 0, absence of lymphocytic infiltration; grade I, slight lymphocytic infiltration; grade II, moderate lymphocytic infiltration; grade III, one focus of lymphocytic infiltration per 4 mm^2 tissue; grade IV, more than one focus of lymphocytic infiltration per 4 mm^2 tissue (Note: One focus of lymphocytic infiltration has been defined as an aggregate of 50 or more lymphocytes gathered in the labial gland stroma per 4 mm^2 of tissue.

[2] = tested on: spleen CD4+ CD25+ FOXP3+ T lymphocytes; assay: Spleen CD4+ CD25+ FOXP3+ T lymphocytes in NOD model mice (FIG. 14)
Excerpt: FIG. 14 Effects of CP-25 on spleen CD4^+ CD25^+ FOXP3^+ T lymphocytes in NOD model mice.

[3] = tested on: spleen CD19+ CD27+ B lymphocytes; assay: Spleen CD19+ CD27+ B lymphocytes in SS model mice (FIG. 7)
Excerpt: FIG. 7 Effects of CP-25 on spleen CD19^+ CD27^+ B lymphocytes in SS model mice.

[4] = tested on: spleen CD11c+ MHC-II+ DC; assay: Spleen CD11c+ MHC-II+ DC in SS model mice (FIG. 9)
Excerpt: FIG. 9 Effects of CP-25 on spleen CD11c^+ MHC-II^+ DC in SS model mice.

[5] = tested on: spleen B lymphocyte; assay: Spleen B lymphocyte proliferation in SS model mice (FIG. 3)
Excerpt: FIG. 3 Effects of CP-25 on spleen B lymphocyte proliferation in SS model mice.

[6] = tested on: spleen T lymphocytes; assay: Spleen T lymphocyte proliferation in NOD model mice (FIG. 12A)
Excerpt: FIG. 12 Effects of CP-25 on spleen T and B lymphocyte proliferation in NOD model mice.
A: T lymphocytes; B: B lymphocytes

[7] = tested on: spleen CD4+ IL-17A+ T lymphocytes; assay: Spleen CD4+ IL-17A+ T lymphocytes in SS model mice (FIG. 4)
Excerpt: FIG. 4 Effects of CP-25 on spleen CD4^+ IL-17A^+ T lymphocytes in SS model mice.

[8] = tested on: spleen CD4+ IL-17A+ T lymphocytes; assay: Spleen CD4+ IL-17A+ T lymphocytes in NOD model mice (FIG. 13)
Excerpt: FIG. 13 Effects of CP-25 on spleen CD4^+ IL-17A^+ T lymphocytes in NOD model mice.

[9] = tested on: spleen CD4+ CD25+FOXP3+ T lymphocytes; assay: Spleen CD4+ CD25+ FOXP3+ T lymphocytes in SS model mice (FIG. 5, 6); details: FIG. 6
Excerpt: FIG. 5 Effects of CP-25 on spleen CD4^+ CD25^+FOXP3^+ T lymphocytes in SS model mice.
FIG. 6 Effects of CP-25 on spleen CD4^+ CD25^+FOXP3^+ T lymphocytes in SS model mice.

[10] = tested on: Sjögren's syndrome model mice (C57BL/6 female mice); assay: Saliva amount in induced Sjögren's syndrome model mice (wet weight method after pilocarpine); details: for Saliva amount in SS mice, One week after administration / Saliva amount in SS mice, Two weeks after administration / Saliva amount in SS mice, Pre-administration: Example 1, C57BL/6 SS mice; for Saliva amount in SS mice, Pre-administration / Saliva amount, Pre-administration: baseline before administration; for Saliva amount, One week after: one week of administration; for Saliva amount, Two weeks after: two weeks of administration
Description: […] Water intake, saliva amount and submaxillary gland pathological analysis and score were determined respectively, on the day before administration, the 7th day and 14th day after administration. The therapeutic effects of CP-25 on Sjögren's syndrome were evaluated by comparison of changes of each index before and after treatment. 2 Sjögren's syndrome model mice: C57BL/6 female mice housed in a SPF environment with successful modeling (The animal model was made via repeated multi-point intracutaneous injection of submaxillary gland homogenate of homologous mice to tail and back of mice). The animal model was made via repeated multi-point intracutaneously injection of submaxillary gland homogenate of homologous mice to tail and back of mice, and the mice with successful modeling were randomly assigned to each group according to comprehensive conditions of mice. At the same time, the average weight and status of each group of mice should be as close as possible. […] […] High dose of said pharmaceutical should be incubated for half an hour before use. Before measurement, mice were anesthetized via intraperitoneal injection of 0.05 ml of 2.4% pentobarbital sodium, and the satisfactory anesthesia was smooth breathing, corneal reflex disappearance and limb muscle relaxation. After complete anesthesia, a mouse was placed in slightly tilted trendelenburg position, and its body was kept warm using the heater. The mouse was injected intraperitoneally with 0.1 ml of 0.025 mg/ml Pilocarpine, and 5 min later, a weighed cotton ball was placed in the mouth of the mouse for 10 min. After taking the ball out, the saliva weight of mice was measured by the wet weight method.

[11] = SS model mice, 17.5 mg/kg by gavage
[12] = SS model mice, 35 mg/kg by gavage

## C[C@@]12C[C@@]3(O)O[C@H](O1)C1(COC(=O)c4ccccc4)[C@@H]3CC12OC1OC(COS(=O)(=O)c2ccccc2)C(O)C(O)C1O (stereo partly shown) [CP-25, Paeoniflorin-6′-O-benzenesulfonate]
[1]; 17.5 mg/kg
  Score: mice with submaxillary gland pathology Grade 0: 0
  Score: mice with submaxillary gland pathology Grade I: 0
  Score: mice with submaxillary gland pathology Grade II: 0
  Score: mice with submaxillary gland pathology Grade III: 1
  Score: mice with submaxillary gland pathology Grade IV: 3
[1]; 35 mg/kg
  Score: mice with submaxillary gland pathology Grade 0: 0
  Score: mice with submaxillary gland pathology Grade I: 0
  Score: mice with submaxillary gland pathology Grade II: 0
  Score: mice with submaxillary gland pathology Grade III: 1
  Score: mice with submaxillary gland pathology Grade IV: 3
[1]; 70 mg/kg
  Score: mice with submaxillary gland pathology Grade 0: 0
  Score: mice with submaxillary gland pathology Grade I: 0
  Score: mice with submaxillary gland pathology Grade II: 0
  Score: mice with submaxillary gland pathology Grade III: 3
  Score: mice with submaxillary gland pathology Grade IV: 1 ^#
[1]; NOD model mice, Example 6
  Pathological changes in submaxillary gland: apparently ameliorate the pathological changes
[2]
  Ratio of spleen CD4+ CD25+FOXP3+ Treg lymphocytes: significantly improve
[3]
  Ratio of spleen CD19+ CD27+ B lymphocytes: significantly increase
[4]
  Expression of surface molecular MHC-II+ on spleen CD11c+ DC: significantly inhibit
[5]
  Spleen B lymphocyte proliferation: significantly inhibit
[6]
  Spleen T lymphocyte proliferation: significantly inhibit
[7]
  Ratio of CD4+ IL-17A+ Th17 lymphocytes: significantly inhibit
[8]
  Ratio of spleen CD4+ IL-17A+ Th17 lymphocytes: significantly inhibit
[9]
  Ratio of CD4+ CD25+FOXP3+ Treg lymphocytes: increase
[10]; 17.5 mg/kg
  Saliva amount in SS mice, One week after administration: 17.83 ± 2.14 mg/each mouse/10 min
  Saliva amount in SS mice, Two weeks after administration: 17.67 ± 2.07^ mg/each mouse/10 min
[10]; 35 mg/kg
  Saliva amount in SS mice, One week after administration: 18.33 ± 1.97 mg/each mouse/10 min
  Saliva amount in SS mice, Two weeks after administration: 23.17 ± 2.64 mg/each mouse/10 min
[10]; 70 mg/kg
  Saliva amount in SS mice, One week after administration: 25.67 ± 1.63 mg/each mouse/10 min
  Saliva amount in SS mice, Two weeks after administration: 26.83 ± 1.47 mg/each mouse/10 min
[10]; dose group 17.5 mg/kg
  Saliva amount in SS mice, Pre-administration: 22.67 ± 3.27 mg/each mouse/10 min
[10]; dose group 35 mg/kg
  Saliva amount in SS mice, Pre-administration: 23.01 ± 2.37 mg/each mouse/10 min
[10]; dose group 70 mg/kg
  Saliva amount in SS mice, Pre-administration: 22.75 ± 3.67 mg/each mouse/10 min
[10]; [11]
  Saliva amount, One week after: 17.83 ± 2.14 mg/10 min
  Saliva amount, Two weeks after: 17.67 ± 2.07^ mg/10 min
[10]; [12]
  Saliva amount, One week after: 18.33 ± 1.97 mg/10 min
  Saliva amount, Two weeks after: 23.17 ± 2.64 mg/10 min
[10]; SS model mice, 70 mg/kg
  Saliva amount, One week after: 25.67 ± 1.63 mg/10 min
  Saliva amount, Two weeks after: 26.83 ± 1.47 mg/10 min
[10]; SS model mice, dose group 17.5 mg/kg by gavage
  Saliva amount, Pre-administration: 22.67 ± 3.27 mg/10 min
[10]; SS model mice, dose group 35 mg/kg by gavage
  Saliva amount, Pre-administration: 23.01 ± 2.37 mg/10 min
[10]; SS model mice, dose group 70 mg/kg
  Saliva amount, Pre-administration: 22.75 ± 3.67 mg/10 min
[10]; SS model mice, high dose of CP-25, TGP, Pae, HCQ at the doses of Table 3
  Curative effect judged on saliva amount after one week of medication: had curative effects
[10]; SS model mice, two weeks of medication
  Efficacy judged on saliva amount with medication extended to two weeks: more significant efficacy
[10]; Sjögren's syndrome mice, Example 1
  Saliva amount (in words): significantly increase
[10]; Sjögren's syndrome mice, Example 1, saliva amount
  Onset time of curative effects versus comparators: earlier than that of TGP, Pae or HCQ
